{"source": "patent US9017646B2", "about": "“Process of evaluating blood-brain barrier permeability of stroke rat by using fluorescent substance” (Institute of Nuclear Energy Research, Atomic Energy Council, priority 2012, dated 2015)", "system": "blood-brain barrier of stroke rat", "assay": "Blood-brain barrier permeability of stroke rat (middle cerebral artery occlusion model) by Evans blue dye, optical image and IVIS 100 fluorescence imaging of the whole brain", "assay_type": "in vivo, SD (Sprague Dawley) rat", "settings": "for presence of blue dye in brain tissue (optical image, FIG. 2): 30 minutes distribution, transcardial perfusion", "text": "FIG. 1 is a schematic view of an evaluation process of the present invention. As shown, the invention is a process of evaluating the blood-brain barrier permeability of a stroke rat by using fluorescent substance. The process of the invention uses Evans blue dye having spontaneous fluorescence properties, in combination with the use of a new non-invasive in vivo imaging system (IVIS), to obtain fluorescent signals so as to assess the change in the blood-brain barrier permeability of rodents after a cerebral artery stroke model surgery. In operation, an Evans blue dye 11 is injected into a stroke rat 1 of middle cerebral artery occlusion model. A non-invasive in vivo imaging system 12 is used to detect the fluorescence distribution of the whole brain, and obtain images combined by the fluorescence images and optical images for the whole brain tissue. Thereby, the change in the blood-brain barrier permeability of the stroke rat can be completely realized.\nFIG. 2 is an optical image of the whole brain tissue after the injection of Evans blue dye according to the invention. FIG. 3 is an integrated image combined the fluorescence images with the optical images by using an IVIS 100 system according to the invention. As shown, in a preferred embedment, the invention uses a SD (Sprague Dawley) rat as the stroke animal model subject to transient bilateral common carotid artery and right middle cerebral artery ligation. After the rat is anesthetized, the surgery procedure is described roughly as follows. The skull of the rat is opened by drilling in order to find the right middle cerebral artery. A 10-0 needle is used to take the right middle cerebral artery and rotate it 90 degrees. It is ensured that the blood cannot flow smoothly under the observation by a microscope. Then, both sides of the common carotid artery are subject to ligation for 90 minutes. After the stitches have been removed, wounds are sutured to allow the rat to be recovered.\nThree groups are provided in the experiment, in which a sham group is a rat whose skull is opened without the bilateral common carotid artery and right middle cerebral artery ligation so as to exclude the impact caused by drilling the skull; a control group is the blank rat without any surgery; and a surgery group is a stroke rat whose skull is opened to perform the middle cerebral artery ligation.\nEvans blue dye is dissolved in saline and injected intravenously into the rat via its tail 24 hours after surgery. After distribution for 30 minutes, the rat is anesthetized for transcardial perfusion in order to wash away the dye within the blood vessels. The IVIS 100 (Caliper) system is used to detect the fluorescence distribution of the whole brain tissue. The Evans blue dye can be excited by the light of 620 nanometer (nm) wavelengths to emit the light of 680 nm wavelength which can be detected by the IVIS 100 system and further converted into images (as shown in FIG. 3)."}
{"smiles": "Cc1cc(-c2ccc(/N=N/c3ccc4c(S(=O)(=O)O)cc(S(=O)(=O)O)c(N)c4c3O)c(C)c2)ccc1/N=N/c1ccc2c(S(=O)(=O)O)cc(S(=O)(=O)O)c(N)c2c1O", "note": "[Evans blue dye, Evans blue]", "values": [{"measurement": "fluorescence of whole brain tissue (IVIS 100, excitation 620 nm, emission 680 nm, FIG. 3)", "setting": "control group (blank rat without any surgery)", "value": "fluorescence is not obvious in the brain tissue"}, {"measurement": "presence of blue dye in brain tissue (optical image, FIG. 2)", "setting": "control group (blank rat without any surgery), dye i.v. via tail", "value": "no presence of the blue dye in the brain tissue"}, {"measurement": "fluorescence of whole brain tissue (IVIS 100, excitation 620 nm, emission 680 nm, FIG. 3)", "setting": "sham group (skull opened without ligation)", "value": "fluorescence is not obvious in the brain tissue"}, {"measurement": "presence of blue dye in brain tissue (optical image, FIG. 2)", "setting": "sham group (skull opened without ligation), dye i.v. via tail 24 hours after surgery", "value": "no presence of the blue dye in the brain tissue"}, {"measurement": "fluorescence of whole brain tissue (IVIS 100, excitation 620 nm, emission 680 nm, FIG. 3)", "setting": "surgery group (stroke rat), 24 hours after stroke surgery", "value": "fluorescence signals are detected in the right brain"}, {"measurement": "presence of blue dye in brain tissue (optical image, FIG. 2)", "setting": "surgery group (stroke rat), dye i.v. via tail 24 hours after surgery", "value": "leak into the interstitial cells of the right brain"}]}
